Values of other authors, collected in US20100093849A1, “OXALIPLATIN PHARMACEUTICAL COMPOSITION WITH ALCOHOLIC SUGAR-BASED BUFFER” (priority 2007, published 2010).
Several values for one entry are separate records, joined by “and”; a condition that tells them apart may be missing. Equal values may be shown once.

Experiments:
[1] = Merck Index

second dissociation constant, pKa [1]	Compound	solubility in water (at 37° C.)	solubility in ether and ethanol (ether and ethanol)	highest concentrations of oxaliplatinum achieved (solvent of the same volumes of 1,2-propanediol and water (WO0115691))
4.28	O=C(O)C(=O)O [Oxalic acid]	–	–	–
–	O=C1[O][Pt]2([NH][C@@H]3CCCC[C@H]3[NH]2)[O]C1=O [Oxaliplatinum, {trans-(1R,2R)-1,2-cyclohexane-diamine}-(oxalato)platinum(II) complex]	about 8 mg/ml	practically insoluble	14.01 mg/mL and 14.33 mg/mL
